From patent US20240000767A1, “COMBINATION OF AN ALPHA2-ADRENOCEPTOR SUBTYPE C (ALPHA-2C) ANTAGONIST WITH A TASK1/3 CHANNEL BLOCKER FOR THE TREATMENT OF SLEEP APNEA” (Bayer Aktiengesellschaft, priority 2020, published 2024)
pIC50: −log10 of the molar value.

molecular target: human ADRA2C receptor (Homo sapiens (Human), UniProt P18825); experiment: In vitro activity assay to determine the inhibition of recombinant ADRA2C (CHO-K1 cells, aequorin bioluminescence); assay type: cell-based; details: inhibition of noradrenaline-induced bioluminescence signal; some mean values from multiple determinations; read-out: ARα2C IC50
Sequence (P18825 whole entry): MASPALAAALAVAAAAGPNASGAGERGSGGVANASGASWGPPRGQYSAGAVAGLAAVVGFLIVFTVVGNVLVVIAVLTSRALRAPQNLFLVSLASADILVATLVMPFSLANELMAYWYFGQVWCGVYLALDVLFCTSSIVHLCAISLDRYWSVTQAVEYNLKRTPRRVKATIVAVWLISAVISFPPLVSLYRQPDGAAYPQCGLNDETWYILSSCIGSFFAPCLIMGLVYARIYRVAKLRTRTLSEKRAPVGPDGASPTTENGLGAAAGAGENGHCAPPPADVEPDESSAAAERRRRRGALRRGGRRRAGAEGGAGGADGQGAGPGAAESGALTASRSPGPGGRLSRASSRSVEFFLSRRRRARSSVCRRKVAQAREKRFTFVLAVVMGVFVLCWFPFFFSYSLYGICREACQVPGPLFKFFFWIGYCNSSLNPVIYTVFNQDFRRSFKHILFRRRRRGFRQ
Method in brief: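 IC50 is the concentration halving the agonist (noradrenaline)-evoked rise in aequorin luminescence, fitted by 4-parameter Hill function. Read in stable Gαq/aequorin CHO-K1 cells expressing recombinant human ADRA2C.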

Row | Compound | pIC50
1 | CCC1CCCN(C2CCN(c3ncc(C(=O)NCc4ncc(F)cc4F)s3)CC2)C1 (racemic) [Example 17, N-[(3,5-Difluoropyridin-2-yl)methyl]-2-(3-ethyl[1,4′-bipiperidin]-1′-yl)-1,3-thiazole-5-carboxamide (racemate)] | 7.58
2 | C[C@@H]1CCCN(C2CCN(c3ncc(C(=O)NCc4ncc(Cl)cc4F)s3)CC2)C1 [Example 23, N-[(5-chloro-3-fluoropyridin-2-yl)methyl]-2-[(3R)-3-methyl[1,4′-bipiperidin]-1′-yl]-1,3-thiazole-5-carboxamide] | 7.77
3 | C[C@@H]1CCCN(C2CCN(c3nc(Cl)c(C(=O)NCc4ncc(F)cc4F)s3)CC2)C1 [Example 120, 4-Chloro-N-[(3,5-difluoropyridin-2-yl)methyl]-2-[(3R)-3-methyl[1,4′-bipiperidin]-1′-yl]-1,3-thiazole-5-carboxamide] | 7.39
4 | CCc1nc(N2CCC(N3CCC[C@@H](C)C3)CC2)sc1C(=O)NCc1ncc(F)cc1F [Example 130, N-[(3,5-Difluoropyridin-2-yl)methyl]-4-ethyl-2-[(3R)-3-methyl[1,4′-bipiperidin]-1′-yl]-1,3-thiazole-5-carboxamide] | 9.27
5 | COc1ccc2c(c1)CCN(C1CCN(c3ncc(C(=O)NCc4ncc(F)cc4F)s3)CC1)C2 [Example 145] | 9.00
6 | O=C(NCc1ncc(F)cc1F)c1cnc(N2CCC(N3CCc4cccc(Cl)c4C3)CC2)s1 [Example 141] | 8.06
7 | C[C@@H]1CCCN(C2CCCN(c3ncc(C(=O)NCc4ncc(F)cc4F)s3)CC2)C1 (stereo partly drawn) [Example 71, N-[(3,5-Difluoropyridin-2-yl)methyl]-2-{4-[(3R)-3-methylpiperidin-1-yl]azepan-1-yl}-1,3-thiazole-5-carboxamide] | 7.00
8 | O=C(NCc1ncc(F)cc1F)c1cnc(N2CCC(N3CCCC4(C3)CC4(F)F)CC2)s1 (single isomer, unassigned; ent-2) [Example 132, ent-2-[4-(1,1-Difluoro-5-azaspiro[2.5]octan-5-yl)piperidin-1-yl]-N-[(3,5-difluoropyridin-2-yl)methyl]-1,3-thiazole-5-carboxamide (enantiomer 2)] | 9.15
9 | CC(NC(=O)c1cnc(N2CCC(N3CCC[C@@H](C)C3)CC2)s1)c1ncc(F)cc1F (mixture of isomers) [Example 55, diamix-N-[1-(3,5-Difluoropyridin-2-yl)ethyl]-2-[(3R)-3-methyl[1,4′-bipiperidin]-1′-yl]-1,3-thiazole-5-carboxamide] | 6.82
10 | O=C(NCc1ncc(F)cc1F)c1cnc(N2CCC(N3CCCC4(C3)CC4(F)F)C(F)C2)s1 (stereo not drawn) [Example 134, diamix-2-[4-(1,1-Difluoro-5-azaspiro[2.5]octan-5-yl)-3-fluoropiperidin-1-yl]-N-[(3,5-difluoropyridin-2-yl)methyl]-1,3-thiazole-5-carboxamide] | 9.13
11 | C[C@@H]1CCCN(C2CCN(c3ncc(C(=O)NCc4ncccc4Cl)s3)CC2)C1 [Example 26, N-[(3-chloropyridin-2-yl)methyl]-2-[(3R)-3-methyl[1,4′-bipiperidin]-1′-yl]-1,3-thiazole-5-carboxamide] | 6.55
12 | CC1CCCN(C2CCN(c3ncc(C(=O)NCc4ncc(F)cc4F)s3)CC2)CC1 (single isomer, unassigned) [Example 104, ent-N-[(3,5-Difluoropyridin-2-yl)methyl]-2-[4-(4-methylazepan-1-yl)piperidin-1-yl]-1,3-thiazole-5-carboxamide] | 8.00
13 | O=C(NCc1ncc(F)cc1F)c1cnc(N2CCC(N3CCCCC3)CC2)s1 [Example 128, 2-([1,4′-Bipiperidin]-1′-yl)-N-[(3,5-difluoropyridin-2-yl)methyl]-1,3-thiazole-5-carboxamide] | 6.26
14 | Cc1ccccc1CNC(=O)c1cnc(N2CCC(N3CCC[C@@H](C)C3)CC2)s1 [Example 37, N-(2-methylbenzyl)-2-[(3R)-3-methyl[1,4′-bipiperidin]-1′-yl]-1,3-thiazole-5-carboxamide] | 6.70
15 | CO[C@@H]1CCCN(C2CCN(c3ncc(C(=O)NCc4ncc(F)cc4F)s3)CC2)C1 [Example 15, N-[(3,5-difluoropyridin-2-yl)methyl]-2-[(3R)-3-methoxy[1,4′-bipiperidin]-1′-yl]-1,3-thiazole-5-carboxamide] | 5.73
16 | O=C(NCc1ncc(F)cc1F)c1cnc(N2CCC(N3CCCC(COCC4CC4)C3)CC2)s1 (single isomer, unassigned; ent-2) [Example 115, ent-2-{3-[(Cyclopropylmethoxy)methyl][1,4′-bipiperidin]-1′-yl}-N-[(3,5-difluoropyridin-2-yl)methyl]-1,3-thiazole-5-carboxamide] | 9.21
17 | COc1cccc(CNC(=O)c2cnc(N3CCC(N4CCC[C@@H](C)C4)CC3)s2)c1 [Example 80] | 7.04
18 | O=C(NCc1ncc(F)cc1F)c1cnc(N2CCC(N3CCC[C@@H](OCC4CC4)C3)CC2)s1 [Example 114, 2-[(3R)-3-(Cyclopropylmethoxy)[1,4′-bipiperidin]-1′-yl]-N-[(3,5-difluoropyridin-2-yl)methyl]-1,3-thiazole-5-carboxamide] | 8.89
19 | C[C@@H]1CCCN(C2CCN(c3nc(C(F)(F)F)c(C(=O)NCc4ncc(F)cc4F)s3)CC2)C1 [Example 11, N-[(3,5-difluoropyridin-2-yl)methyl]-2-[(3R)-3-methyl[1,4′-bipiperidin]-1′-yl]-4-(trifluoromethyl)-1,3-thiazole-5-carboxamide] | 6.85

Further compounds by rising pIC50, results first:

Row | pIC50 | Compound
20 | 6.05 | C[C@@H]1CCCN(C2CCN(c3ncc(C(=O)NCc4cccc(C(F)(F)F)n4)s3)CC2)C1 [Example 28, 2-[(3R)-3-methyl[1,4′-bipiperidin]-1′-yl]-N-{[6-(trifluoromethyl)pyridin-2-yl]methyl}-1,3-thiazole-5-carboxamide]
21 | 6.22 | C[C@@H]1CCCN(C2CCN(c3ncc(C(=O)NCc4cccnc4)s3)CC2)C1 [Example 85]
22 | 6.66 | C[C@@H]1CCCN(C2CCN(c3ncc(C(=O)NCc4ccccc4)s3)CC2)C1 [Example 73, N-Benzyl-2-[(3R)-3-methyl[1,4′-bipiperidin]-1′-yl]-1,3-thiazole-5-carboxamide]
23 | 6.70 | C[C@@H]1CCCN(C2CCN(c3ncc(C(=O)N(C)Cc4ncc(F)cc4F)s3)CC2)C1 [Example 150]
24 | 6.74 | Cc1ccc(CNC(=O)c2cnc(N3CCC(N4CCC[C@@H](C)C4)CC3)s2)cn1 [Example 72, 2-[(3R)-3-methyl[1,4′-bipiperidin]-1′-yl]-N-[(6-methylpyridin-3-yl)methyl]-1,3-thiazole-5-carboxamide]
25 | 6.96 | C[C@@H]1CCCN(C2CCN(c3ncc(C(=O)NCc4ncccc4F)s3)CC2)C1 [Example 20, N-[(3-Fluoropyridin-2-yl)methyl]-2-[(3R)-3-methyl[1,4′-bipiperidin]-1′-yl]-1,3-thiazole-5-carboxamide]
26 | 7.13 | O=C(NCc1ncc(F)cc1F)c1cnc(N2CCC(N3CCCC(COCC4(CF)CC4)C3)CC2)s1 (racemic) [Example 60, rac-N-[(3,5-Difluoropyridin-2-yl)methyl]-2-[3-({[1-(fluoromethyl)cyclopropyl]methoxy}methyl)[1,4′-bipiperidin]-1′-yl]-1,3-thiazole-5-carboxamide]
27 | 7.55 | C[C@@H]1CCCN(C2CCN(c3ncc(C(=O)NCc4cccc(F)c4)s3)CC2)C1 [Example 86]
28 | 7.77 | COCC1CCCN(C2CCN(c3ncc(C(=O)NCc4ncc(F)cc4F)s3)CC2)C1 (racemic) [Example 48, rac-N-[(3,5-Difluoropyridin-2-yl)methyl]-2-[3-(methoxymethyl)[1,4′-bipiperidin]-1′-yl]-1,3-thiazole-5-carboxamide]
29 | 7.89 | C[C@@H]1CCCN(C2CCN(c3nc(C4CC4)c(C(=O)NCc4ncc(F)cc4F)s3)CC2)C1 [Example 122, 4-Cyclopropyl-N-[(3,5-difluoropyridin-2-yl)methyl]-2-[(3R)-3-methyl[1,4′-bipiperidin]-1′-yl]-1,3-thiazole-5-carboxamide]
30 | 8.08 | CC(NC(=O)c1cnc(N2CCC(N3CCC[C@@H](C)C3)CC2)s1)c1cc(F)ccc1F (single isomer, unassigned) [Example 46]
31 | 8.11 | C[C@@H]1CCCN(C2CCN(c3nc(-c4ccccc4Cl)c(C(=O)NCc4ncc(F)cc4F)s3)CC2)C1 [Example 118, 4-(2-Chlorophenyl)-N-[(3,5-difluoropyridin-2-yl)methyl]-2-[(3R)-3-methyl[1,4′-bipiperidin]-1′-yl]-1,3-thiazole-5-carboxamide]
32 | 8.17 | C[C@@H]1CCCN(C2CCN(c3ncc(C(=O)NCc4ncc(F)cc4F)s3)CC2F)C1 (single isomer, unassigned) [Example 52]
33 | 8.54 | O=C(NCc1ncc(F)cc1F)c1cnc(N2CCC(N3CCCC(CC4CC4)C3)CC2)s1 (racemic) [Example 3, 2-[3-(Cyclopropylmethyl)[1,4′-bipiperidin]-1′-yl]-N-[(3,5-difluoropyridin-2-yl)methyl]-1,3-thiazole-5-carboxamide (racemate)]
34 | 8.85 | O=C(NCc1ncc(F)cc1F)c1cnc(N2CCC(N3CCCC4(CC4)C3)CC2)s1 [Example 64, 2-[4-(5-Azaspiro[2.5]octan-5-yl)piperidin-1-yl]-N-[(3,5-difluoropyridin-2-yl)methyl]-1,3-thiazole-5-carboxamide]
35 | 9.07 | O=C(NCc1ncc(F)cc1F)c1cnc(N2CCC(N3CCCC(OC4CCC4)C3)CC2)s1 (racemic) [Example 109, rac-2-[3-(Cyclobutyloxy)[1,4′-bipiperidin]-1′-yl]-N-[(3,5-difluoropyridin-2-yl)methyl]-1,3-thiazole-5-carboxamide]
36 | 9.31 | C[C@@H]1CCCN(C2CCN(c3nc(C(=O)NCc4ncc(F)cc4F)cs3)CC2F)C1 (mixture of isomers) [Example 111, diamix-N-[(3,5-Difluoropyridin-2-yl)methyl]-2-[(3R)-3′-fluoro-3-methyl[1,4′-bipiperidin]-1′-yl]-1,3-thiazole-4-carboxamide]
